≈ marks a conversion by molar mass, not a printed value. Some results are limits rather than exact numbers.

What all share (assay type): functional
Details in all cases: read-out: ED50 (the source's name)

One experiment relates to HT-29. Nature of the experiment: Cytotoxicity against human HT29 cells by modified MTT assay. In general terms: Tetrazolium assays rely on reduction of a dye to a coloured formazan, in cell work by metabolically active cells.
The next experiment relates to P388. Nature of the experiment: Cytotoxicity against mouse P388 cells by modified MTT assay.
Another experiment relates to A549. Nature of the experiment: Cytotoxicity against human A549 cells by modified MTT assay.
For another experiment, the system named is KB. Kind of experiment: Cytotoxicity against human KB cells by modified MTT assay.

Turning to `C=C(CC[C@@H](C)[C@H]1CC[C@H]2[C@@H]3C[C@@H](O)[C@@]4(O)C[C@@H](O)C[C@H](O)[C@]4(C)[C@H]3CC[C@]12C)C(C)C`, the EC50 in the experiment with HT-29 is 1.5 µg/mL (≈ 3.34 µM); in the experiment on P388, 8.3 µg/mL (≈ 18.5 µM); in the experiment with A549, 10.8 µg/mL (≈ 24.1 µM); in the experiment on KB, 1.9 µg/mL (≈ 4.23 µM).

In the case of `CC(C)[C@@H](C)[C@H]1C[C@@H]1[C@@H](C)[C@H]1CC[C@@H]2[C@]1(C)CC[C@H]1[C@]23C=C[C@]2(C[C@@H](O)CC[C@]12C)OO3`, the EC50 with HT-29 was 1.4 µg/mL (≈ 3.16 µM); in the experiment on P388, 0.4 µg/mL (≈ 0.904 µM); in the experiment with A549 it was 2.7 µg/mL (≈ 6.1 µM); in the experiment on KB, 2.1 µg/mL (≈ 4.74 µM).

`CC(=O)[C@H]1CC[C@H]2[C@@H]3CC=C4C[C@@H](O)CC[C@]4(C)[C@H]3CC[C@]12C` [PREGNENOLONE]: the EC50 was 0.7 µg/mL (≈ 2.21 µM) with HT-29, 7.8 µg/mL (≈ 24.6 µM) in the experiment with P388, 8.6 µg/mL (≈ 27.2 µM) with A549 and over 50 µg/mL with KB.
